Data reported in US20100048462A1, “TRUNCATED PTH PEPTIDES WITH A CYCLIC CONFORMATION” (Zealand Pharma A/S, priority 2006, published 2010).
Bridge positions count the residues as written; N and C are the ends. Square brackets hold non-standard residues; d marks the D form. Peptide text beside a SMILES is read from it. hArg = N=C(N)NCCCC[C@H](N)C(=O)O; Ac6c = NC1(C(=O)O)CCCCC1; Ac5c = NC1(C(=O)O)CCCC1; Nva = CCC[C@H](N)C(=O)O; Abu = CC[C@H](N)C(=O)O; Aib = CC(C)(N)C(=O)O

Biological target: T1, Saos-2 PTH1R (Homo sapiens, UniProt Q03431)
T1 construct: endogenous in cells; host or cells: Saos-2
T1 sequence (Q03431 27-593): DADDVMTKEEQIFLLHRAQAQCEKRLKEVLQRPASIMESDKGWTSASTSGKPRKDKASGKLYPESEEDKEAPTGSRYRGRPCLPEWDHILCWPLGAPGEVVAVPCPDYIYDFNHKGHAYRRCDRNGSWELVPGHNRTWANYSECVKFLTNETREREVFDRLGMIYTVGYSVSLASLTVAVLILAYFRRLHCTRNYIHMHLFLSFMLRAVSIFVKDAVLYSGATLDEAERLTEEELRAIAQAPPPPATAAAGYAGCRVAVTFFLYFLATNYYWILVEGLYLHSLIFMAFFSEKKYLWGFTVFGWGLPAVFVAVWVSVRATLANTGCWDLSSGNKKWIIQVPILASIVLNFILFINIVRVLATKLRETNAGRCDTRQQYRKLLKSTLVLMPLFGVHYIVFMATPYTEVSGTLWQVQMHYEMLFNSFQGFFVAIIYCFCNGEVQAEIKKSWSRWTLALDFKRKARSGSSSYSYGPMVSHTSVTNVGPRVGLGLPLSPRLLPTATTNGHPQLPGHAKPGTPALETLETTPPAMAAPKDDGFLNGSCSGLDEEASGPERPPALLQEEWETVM
Assay: cAMP-efficacy assay in Saos-2 cells
Assay type: cell-based
Conditions: for EC50: cAMP, 100 μM IBMX, 37° C. 15 min, suffix of label = salt tested; for Emax ± SEM: relative effect to the control (SEQ ID NO: 32)
Procedure: Peptides were dissolved in phosphate buffered saline and further diluted in Tyrode's buffer (TB, Sigma-Aldrich) containing 0.1% BSA and 100 μM isobutyl-methyl-xanthine (IBMX, Sigma-Aldrich). Saos-2 cells were seeded at 50,000 cells/well in 96-microtiter plates and grown for two days before the efficacy assays. On the day of analysis, the growth medium was carefully removed by suction. Cells were washed once with 200 μl TB/0.1% BSA. The buffer was replaced with 100 μl reaction mixture (±test peptide), and incubated at 37° C. for 15 min. The reaction was stopped by addition of 25 μl of ice-cold 0.5 M HCl. Cells were in the following incubated on ice for 60 min. 75 μl acetate-buffer, pH6.2, was added to each well of a 96-well cAMP FlashPlate (Perkin-Elmer). […] FlashPlates were incubated overnight at 4° C., emptied by suction and counted in a TopCounter (Packard).
Determinations were performed in single determinations or triplicates at all doses. […] Standards were included as single determinations, duplicates or triplicates in each experiment, preferentially on each plate.
Concentration-dependent cAMP responses were imported into GraphPad Prism vers. 4 (GraphPad Software), transformed and plotted. […] Thus, a four-parameter logistic equation was used for determination of the EC50 values. Curves were fitted with a function for sigmoidal dose response curve (variable slope) non-linear fit Y=Bottom+(Top-Bottom)/(1+10̂((LogEC50−X)*HillSlope)) where X is the logarithm of concentration and Y is the response. Y starts at Bottom and goes to Top with a sigmoid shape. pEC50, Hill-coefficient and the maximally inducible concentration of cAMP (Emax) were evaluated.
Overall statistical differences were analyzed with Statistica (Statsoft) using one-way ANOVA. Post-hoc comparisons were made by the use of Fisher's Least Significance Test. Results were considered significant, when p was lower than 0.05.

SMILES | EC50 | Emax ± SEM
CC[C@H](C)[C@H](NC(=O)[C@H](CCC(=O)O)NC(=O)C(C)(C)NC(=O)[C@@H](NC(=O)C1(N)CCCC1)C(C)C)C(=O)N[C@@H](CCC(N)=O)C(=O)N[C@@H](CC(C)C)C(=O)N[C@@H](CCSC)C(=O)N[C@@H](Cc1c[nH]cn1)C(=O)N[C@@H](CCC(N)=O)C(=O)N[C@@H](CCCCNC(=N)N)C(=O)N[C@@H](C)C(=O)N[C@H]1CCCCNC(=O)C[C@@H](C(N)=O)NC(=O)[C@H](CC(N)=O)NC(=O)[C@H](CC(C)C)NC(=O)[C@H](Cc2c[nH]c3ccccc23)NC1=O [2A, H-Ac5c-Val-Aib-Glu-Ile-Gln-Leu-Met-His-Gln-Har-Ala-Lys( )Trp-Leu-Asn-Asp( )-NH2] (H-[Ac5c]V[Aib]EIQLMHQ[hArg]AKWLND-NH2; lactam 13-17) | 6.31 nM | 0.99 ± 0.03
CC[C@H](C)[C@H](NC(=O)[C@H](CCC(=O)O)NC(=O)C(C)(C)NC(=O)[C@@H](NC(=O)C1(N)CCCC1)C(C)C)C(=O)N[C@@H](CCC(N)=O)C(=O)N[C@@H](CC(C)C)C(=O)N[C@@H](CCSC)C(=O)N[C@@H](Cc1c[nH]cn1)C(=O)N[C@@H](CCC(N)=O)C(=O)N[C@@H](CCCCNC(=N)N)C(=O)N[C@@H](C)C(=O)N[C@H]1CCCCNC(=O)C[C@@H](C(N)=O)NC(=O)[C@H](CC(N)=O)NC(=O)[C@H](CC(C)C)NC(=O)[C@H](Cc2c[nH]c3ccccc23)NC1=O [2C, H-Ac5c-Val-Aib-Glu-Ile-Gln-Leu-Met-His-Gln-Har-Ala-Lys( )Trp-Leu-Asn-Asp( )-NH2] (H-[Ac5c]V[Aib]EIQLMHQ[hArg]AKWLND-NH2; lactam 13-17) | 6.61 nM | 0.94 ± 0.03
CC[C@H](C)[C@H](NC(=O)[C@H](CCC(=O)O)NC(=O)C(C)(C)NC(=O)[C@@H](NC(=O)C1(N)CCCC1)C(C)C)C(=O)N[C@@H](CCC(N)=O)C(=O)N[C@@H](CC(C)C)C(=O)N[C@@H](CCSC)C(=O)N[C@@H](Cc1c[nH]cn1)C(=O)N[C@@H](CCC(N)=O)C(=O)N[C@@H](CCCCNC(=N)N)C(=O)N[C@@H](C)C(=O)N[C@H]1CCCCNC(=O)C[C@@H](C(N)=O)NC(=O)[C@H](CC(N)=O)NC(=O)[C@H](CC(C)C)NC(=O)[C@H](Cc2c[nH]c3ccccc23)NC1=O [2T, H-Ac5c-Val-Aib-Glu-Ile-Gln-Leu-Met-His-Gln-Har-Ala-Lys( )Trp-Leu-Asn-Asp( )-NH2] (H-[Ac5c]V[Aib]EIQLMHQ[hArg]AKWLND-NH2; lactam 13-17) | 6.61 nM | 0.70 ± 0.09
CC[C@H](C)[C@H](NC(=O)[C@H](CCC(=O)O)NC(=O)C(C)(C)NC(=O)[C@@H](NC(=O)C1(N)CCCC1)C(C)C)C(=O)N[C@@H](CCC(N)=O)C(=O)N[C@@H](CC(C)C)C(=O)N[C@@H](CC(C)C)C(=O)N[C@@H](Cc1c[nH]cn1)C(=O)N[C@@H](CCC(N)=O)C(=O)N[C@@H](CCCCNC(=N)N)C(=O)N[C@@H](C)C(=O)N[C@H]1CCCCNC(=O)C[C@@H](C(=O)O)NC(=O)[C@H](CC(N)=O)NC(=O)[C@H](CC(C)C)NC(=O)[C@H](Cc2c[nH]c3ccccc23)NC1=O [SEQ ID NO: 5, H-Ac5c-Val-Aib-Glu-Ile-Gln-Leu-Leu-His-Gln-Har-Ala-Lys( )-Trp-Leu-Asn-Asp( )-OH] (H-[Ac5c]V[Aib]EIQLLHQ[hArg]AKWLND-OH; lactam 13-17) | 72.4 nM | 1.16 ± 0.12
CC[C@H](C)[C@H](NC(=O)[C@H](CCC(=O)O)NC(=O)C(C)(C)NC(=O)[C@@H](NC(=O)C1(N)CCCC1)C(C)C)C(=O)N[C@@H](CCC(N)=O)C(=O)N[C@@H](CC(C)C)C(=O)N[C@@H](CCSC)C(=O)N[C@@H](Cc1c[nH]cn1)C(=O)N[C@@H](CCC(N)=O)C(=O)N[C@@H](CCCCNC(=N)N)C(=O)N[C@@H](C)C(=O)N[C@H]1CC(=O)NCCCC[C@@H](C(N)=O)NC(=O)[C@H](CC(N)=O)NC(=O)[C@H](CC(C)C)NC(=O)[C@H](Cc2c[nH]c3ccccc23)NC1=O [SEQ ID NO: 6, H-Ac5c-Val-Aib-Glu-Ile-Gln-Leu-Met-His-Gln-Har-Ala-Asp( )-Trp-Leu-Asn-Lys( )-NH2] (H-[Ac5c]V[Aib]EIQLMHQ[hArg]ADWLNK-NH2; lactam 13-17) | 126 nM | 1.5
CC[C@H](C)[C@H](NC(=O)[C@H](CCC(=O)O)NC(=O)C(C)(C)NC(=O)[C@@H](NC(=O)C1(N)CCCCC1)C(C)C)C(=O)N[C@@H](CCC(N)=O)C(=O)N[C@@H](CC(C)C)C(=O)N[C@@H](CC(C)C)C(=O)N[C@@H](Cc1c[nH]cn1)C(=O)N[C@@H](CCC(N)=O)C(=O)N[C@@H](CCCCNC(=N)N)C(=O)N[C@@H](C)C(=O)N[C@H]1CCCCNC(=O)C[C@@H](C(N)=O)NC(=O)[C@H](CC(N)=O)NC(=O)[C@H](CC(C)C)NC(=O)[C@H](Cc2c[nH]c3ccccc23)NC1=O [SEQ ID NO: 10, H-Ac6c-Val-Aib-Glu-Ile-Gln-Leu-Leu-His-Gln-Har-Ala-Lys( )-Trp-Leu-Asn-Asp( )-NH2] (H-[Ac6c]V[Aib]EIQLLHQ[hArg]AKWLND-NH2; lactam 13-17) | 12.6 nM | 1.08 ± 0.06
CC[C@H](N)C(=O)N[C@H](C(=O)NC(C)(C)C(=O)N[C@@H](CCC(=O)O)C(=O)N[C@H](C(=O)N[C@@H](CCC(N)=O)C(=O)N[C@@H](CC(C)C)C(=O)N[C@@H](CC(C)C)C(=O)N[C@@H](Cc1c[nH]cn1)C(=O)N[C@@H](CCC(N)=O)C(=O)N[C@@H](CCCCNC(=N)N)C(=O)N[C@@H](C)C(=O)N[C@H]1CCCCNC(=O)C[C@@H](C(N)=O)NC(=O)[C@H](CC(N)=O)NC(=O)[C@H](CC(C)C)NC(=O)[C@H](Cc2c[nH]c3ccccc23)NC1=O)[C@@H](C)CC)C(C)C [SEQ ID NO: 11, H-Abu-Val-Aib-Glu-Ile-Gln-Leu-Leu-His-Gln-Har-Ala-Lys( )-Trp-Leu-Asn-Asp( )-NH2] (H-[Abu]V[Aib]EIQLLHQ[hArg]AKWLND-NH2; lactam 13-17) | 67.6 nM | 1.04 ± 0.05
CCC[C@H](N)C(=O)N[C@H](C(=O)NC(C)(C)C(=O)N[C@@H](CCC(=O)O)C(=O)N[C@H](C(=O)N[C@@H](CCC(N)=O)C(=O)N[C@@H](CC(C)C)C(=O)N[C@@H](CC(C)C)C(=O)N[C@@H](Cc1c[nH]cn1)C(=O)N[C@@H](CCC(N)=O)C(=O)N[C@@H](CCCCNC(=N)N)C(=O)N[C@@H](C)C(=O)N[C@H]1CCCCNC(=O)C[C@@H](C(N)=O)NC(=O)[C@H](CC(N)=O)NC(=O)[C@H](CC(C)C)NC(=O)[C@H](Cc2c[nH]c3ccccc23)NC1=O)[C@@H](C)CC)C(C)C [SEQ ID NO: 12, H-Nva-Val-Aib-Glu-Ile-Gln-Leu-Leu-His-Gln-Har-Ala-Lys( )-Trp-Leu-Asn-Asp( )-NH2] (H-[Nva]V[Aib]EIQLLHQ[hArg]AKWLND-NH2; lactam 13-17) | 102 nM | 1.04 ± 0.03
CC[C@H](C)[C@H](NC(=O)[C@H](CCC(=O)O)NC(=O)C1(NC(=O)[C@@H](NC(=O)C(C)(C)N)C(C)C)CCCC1)C(=O)N[C@@H](CCC(N)=O)C(=O)N[C@@H](CC(C)C)C(=O)N[C@@H](CC(C)C)C(=O)N[C@@H](Cc1c[nH]cn1)C(=O)N[C@@H](CCC(N)=O)C(=O)N[C@@H](CCCCNC(=N)N)C(=O)N[C@@H](C)C(=O)N[C@H]1CCCCNC(=O)C[C@@H](C(N)=O)NC(=O)[C@H](CC(N)=O)NC(=O)[C@H](CC(C)C)NC(=O)[C@H](Cc2c[nH]c3ccccc23)NC1=O [SEQ ID NO: 13, H-Aib-Val-Ac5c-Glu-Ile-Gln-Leu-Leu-His-Gln-Har-Ala-Lys( )-Trp-Leu-Asn-Asp( )-NH2] (H-[Aib]V[Ac5c]EIQLLHQ[hArg]AKWLND-NH2; lactam 13-17) | 53.7 nM | 0.96 ± 0.03
